Results reported in DBAASP.
In brackets after ≈: the same amount, converted by molar mass. Values belong to the molecule of their own block, whether it stands above or below them.

Legend:
Assay in all cases: ≥ marks a high value that may be exact or a test limit, other limits are often not marked, values filed in µg/mL are converted to µM
Staphylococcus aureus = system: Staphylococcus aureus
Acinetobacter baumannii = system: Acinetobacter baumannii
[1] = system: Escherichia coli ATCC 25922
[2] = system: Staphylococcus aureus ATCC 25923
[3] = system: Pseudomonas aeruginosa ATCC 10662
[4] = system: Staphylococcus epidermidis ATCC 1435
[5] = system: Pseudomonas aeruginosa ATCC 27853
[6] = system: Cryptococcus neoformans var. grubii H99
Escherichia coli K-12 = system: Escherichia coli K-12
[7] = system: Staphylococcus aureus JE2
[8] = system: Acinetobacter baumannii ATCC 19606
[9] = system: Klebsiella pneumoniae ATCC 700603
[10] = system: Candida albicans ATCC 90028
[11] = system: Staphylococcus aureus ATCC 43300
Bibersteinia trehalosi = system: Bibersteinia trehalosi
Aspergillus fumigatus = system: Aspergillus fumigatus
[12] = system: Salmonella enterica subsp. arizonae
Pasteurella multocida = system: Pasteurella multocida
[13] = system: Corynebacterium pseudotuberculosis ATCC 19410
[14] = system: Pseudomonas aeruginosa PAO1
[15] = system: Mannheimia haemolytica Serovar 1
Klebsiella pneumoniae = system: Klebsiella pneumoniae
[16] = system: Mannheimia haemolytica Serovar 6
[17] = system: Mannheimia haemolytica Serovar 2
Escherichia coli BL21 = system: Escherichia coli BL21
[18] = system: Pseudomonas aeruginosa H1001
[19] = system: Klebsiella pneumoniae KpC+001825971
[20] = system: Staphylococcus aureus ATCC 12600
[21] = system: Pseudomonas aeruginosa PA14
Enterobacter cloacae = system: Enterobacter cloacae
[22] = system: Klebsiella pneumoniae ATCC 13883
[23] = system: Escherichia coli KpC+001812446
[24] = system: Enterococcus faecalis ATCC 19433

MIC (Staphylococcus aureus): 2.4 µM (≈ 6.2 µg/mL)
MIC (Acinetobacter baumannii): 1.2 µM (≈ 3.1 µg/mL)
MIC [1]: 1.2 µM (≈ 3.1 µg/mL)
MIC [2]: 2.4 µM (≈ 6.2 µg/mL)
MIC [3]: 9.66 µM (≈ 25 µg/mL)
MIC [4]: 1.2 µM (≈ 3.1 µg/mL)
SMILES: CC[C@H](C)[C@H](NC(=O)CNC(=O)[C@H](CCCN=C(N)N)NC(=O)[C@H](Cc1ccccc1)NC(=O)[C@@H](NC(=O)[C@H](Cc1cnc[nH]1)NC(=O)[C@H](Cc1cnc[nH]1)NC(=O)[C@H](Cc1ccccc1)NC(=O)[C@@H](N)Cc1ccccc1)[C@@H](C)CC)C(=O)N[C@H](C(=O)N[C@@H](Cc1cnc[nH]1)C(=O)N[C@H](C(=O)NCC(=O)N[C@@H](CCCCN)C(=O)N[C@H](C(=O)N[C@@H](CCCCN)C(=O)N[C@@H](Cc1cnc[nH]1)C(=O)N[C@@H](CCCN=C(N)N)C(=O)N[C@@H](CC(C)C)C(=O)N[C@H](C(=O)N[C@H](C(=O)NCC(N)=O)[C@@H](C)O)C(C)C)[C@@H](C)O)C(C)C)C(C)C [FFHHIFRGIVHVGKTKHRLVTG]

MIC [5]: > 19.5 µM
MIC [6]: 9.73 µM (≈ 16 µg/mL)
MIC (Escherichia coli K-12): 19.5 µM (≈ 32 µg/mL)
MIC [7]: 9.73 µM (≈ 16 µg/mL)
MIC [1]: > 19.5 µM
MIC [8]: 19.5 µM (≈ 32 µg/mL)
MIC [9]: > 19.5 µM
MIC [10]: 19.5 µM (≈ 32 µg/mL)
MIC [11]: 9.73 µM (≈ 16 µg/mL)
SMILES: CC[C@H](C)[C@H](NC(=O)[C@@H](NC(=O)[C@H](CO)NC(=O)[C@H](C)NC(=O)[C@@H](NC(=O)[C@H](CCCCN)NC(=O)[C@H](CCCN=C(N)N)NC(=O)[C@@H](NC(=O)[C@@H](NC(=O)[C@H](CC(=O)O)NC(=O)[C@H](Cc1ccccc1)NC(=O)[C@H](CC(C)C)NC(=O)CN)C(C)C)[C@@H](C)CC)C(C)C)C(C)C)C(=O)NCC(=O)NCC(=O)N[C@@H](CC(C)C)C(=O)O [GLFDVIRKVASVIGGL]

MIC (Bibersteinia trehalosi): 11.1 µM (≈ 20 µg/mL)
MIC (Aspergillus fumigatus): 18.5 µM (≈ 33.3 µg/mL)
MIC (Staphylococcus aureus): > 11.1 µM
MIC [12]: 11.1 µM (≈ 20 µg/mL)
MIC (Pasteurella multocida): 5.55 µM (≈ 10 µg/mL)
MIC [13]: 11.1 µM (≈ 20 µg/mL)
MIC [14]: 1.83 µM (≈ 3.3 µg/mL)
MIC (Klebsiella pneumoniae): > 11.1 µM
SMILES: CC[C@H](C)[C@H](NC(=O)[C@H](Cc1cnc[nH]1)NC(=O)[C@@H](NC(=O)[C@@H](NC(=O)[C@H](CCCCN)NC(=O)[C@H](CCCN=C(N)N)NC(=O)[C@@H](NC(=O)[C@@H](NC(=O)[C@H](CCCN=C(N)N)NC(=O)[C@H](CCCN=C(N)N)NC(=O)[C@@H](N)CC(C)C)[C@@H](C)CC)[C@@H](C)CC)[C@@H](C)CC)[C@@H](C)CC)C(=O)N[C@H](C(=O)N[C@@H](CCCCN)C(=O)N[C@@H](CCCCN)C(=O)O)[C@@H](C)CC [LRRIIRKIIHIIKK]
MIC [15]: 2.78 µM (≈ 5 µg/mL)
MIC [16]: 9.28 µM (≈ 16.7 µg/mL)
MIC [17]: 3.72 µM (≈ 6.7 µg/mL)

MIC (Escherichia coli BL21): 4 µM (≈ 4.98 µg/mL)
MIC [18]: 20 µM (≈ 24.9 µg/mL)
MIC [19]: ≥ 32 µM
MIC [5]: > 32 µM
MIC [20]: ≥ 32 µM
MIC (Staphylococcus aureus): > 32 µM
MIC (Acinetobacter baumannii): ≥ 32 µM
MIC [21]: ≥ 32 µM
MIC [1]: 16 µM (≈ 19.9 µg/mL)
MIC (Enterobacter cloacae): ≥ 32 µM
MIC [2]: > 32 µM
MIC [22]: ≥ 32 µM
MIC [23]: 22.6 µM (≈ 28.2 µg/mL)
MIC [14]: 32 µM (≈ 39.8 µg/mL)
MIC [24]: 5.66 µM (≈ 7.04 µg/mL)
SMILES: CC[C@H](C)[C@H](NC(=O)[C@H](CCCCN)NC(=O)[C@H](CC(C)C)NC(=O)[C@H](CCCN=C(N)N)NC(=O)[C@H](CC(C)C)NC(=O)[C@H](CCCCN)NC(=O)[C@@H](N)CCCCN)C(=O)N[C@@H](C)C(=O)N[C@@H](Cc1ccccc1)C(=O)N[C@@H](CCCCN)C(=O)O [KKLRLKIAFK]
